Assays:
Ps0 patients [1] = assay: Ps0 study in anti-IL-17 treatment groups: serum IL-19 and PASI; assay type: in vivo, human; conditions: for number of patients achieving at least PASI 75: title: week 16, head: Week 2
Source text: (§1) According to an exemplified embodiment, a sandwich ELISA assay for the sensitive detection of IL-19 is provided herein. According to an exemplified embodiment, a first IL-19 antibody (selected from Table 1, 2 or 3) is utilized as an IL-19 capture antibody and a second IL-19 antibody (selected from Table 1, 2 or 3) is utilized as an IL-19 reporter antibody. […] According to some embodiments, one milligram of the first IL-19 antibody (the capture antibody) is biotinylated using Pierce biotinylation kit (Cat #) and one milligram of the second IL-19 antibody (the reporter antibody) is labeled with ruthenium using MesoScale Discovery (MSD) kit for electrochemiluminescent (ECL) detection. According to such embodiment, labeled antibodies are evaluated using MALDI-TOF to ensure suitable labeling, and then diluted in 50% glycerol and stored at −20° C. prior to use.
(§2) Streptavidin-coated 96-well MSD plates are washed three times with TBST (Tris buffered saline containing 10 mmol/L Tris pH 7.40, 150 mmol/L NaCl with 1 mL Tween 20/L) and then blocked with TBS-T plus 1% BSA for 1 hour at room temperature. Plates are again washed and wells are then incubated with biotinylated IL-19 capture antibody (1 mg/L) for 1 hour. Thereafter, plates are again washed prior to patient sample testing.
(§3) During patient sample testing, a standard curve is generated using 50 μL of recombinant human IL-19 control standard (serially diluted IL-19 recombinant protein ranging from 100-0.0001 ng/L, and including a zero blank, in assay buffer of 50 mmol/L HEPES, pH 7.40, 150 mmol/L NaCl, 10 mL/L Triton X-100, 5 mmol/L EDTA, and 5 mmol/L EGTA). […] Patient samples (which, according to the present invention, may include blood, serum or plasma) are diluted 1:4 in assay buffer and added to respective wells. The plate is incubated overnight at 4° C. Following incubation, wells are aspirated and washed 3 times with TBST. Thereafter, 50 μL of ruthenium-labeled IL-19 detection antibody (0.5 mg/L) is added to the wells for a 1-hour incubation at room temperature. Following incubation, wells are aspirated and washed 3 times with TBST. Thereafter, 150 μl of 2×MSD read buffer is added. Ruthenium electrochemiluminescence in the wells is detected using a MSD Sector 6000 plate reader. Data is analyzed and IL-19 MSD immunoassay calibration curve fitting is performed using MesoScale Discovery software. SAS® software version 9.4 (PROC MIXED) is used for assessing treatment effects on IL-19 levels using a mixed effects model with an unstructured covariance matrix and log10 transformed IL-19 concentrations (SAS. Version 9.4 for UNIX; SAS Institute Inc.: Cary, N.C., 2016). Statistical analysis is generated with the ggplot and pROC packages using R version 3.3.3 statistical computing environment (www.R-project.org, Vienna, Austria, 2017).
The study includes five treatment group doses of: 10 mg (n=24), 25 mg (n=23), 75 mg (n=26), or 150 mg (n=28) of ixekizumab or placebo (n=24). Administration of all treatment doses is subcutaneous, and doses are administered starting at week 0 and every 2 weeks thereafter up to week 16 (inclusive).

PsA patients = assay: PsA study in anti-IL-17 treatment groups: serum IL-19 and PASI; assay type: in vivo, human; conditions: for IL-19 (geometric mean) serum levels: subcutaneous
Source text: as §1, §2, §3
A study of IL-19 levels, in serum of 309 PsA patients treated with a therapeutic antibody targeting IL-17, ixekizumab, is performed. The study includes three treatment groups: (i.) anti-IL-17 treatment group, administered ixekizumab 160 mg at baseline followed by an 80 mg dose administered every two weeks thereafter for 12 weeks (n=103); (ii.) anti-IL-17 treatment group, administered ixekizumab 160 mg at baseline followed by an 80 mg dose administered every four weeks thereafter for 12 weeks (n=107); or (iii.) placebo (n=105). Administration of all treatment doses is subcutaneous. […] Serum IL-19 concentration levels are presented in Table 21; week 4 and 12 PASI prognostic values showing correlations of IL-19 serum levels and PASI in patients (21 ng/L, indicates the upper limit of the normal range of IL-19 in healthy subjects) are presented in Tables 22 and 23, respectively.

Ps0 patients [2] = conditions: cited from earlier work
[3] = 10 mg subcutaneous every 2 weeks, week 16
[4] = 25 mg subcutaneous every 2 weeks, week 16
[5] = 75 mg subcutaneous every 2 weeks, week 16
[6] = 150 mg subcutaneous every 2 weeks, week 16
[7] = Q2W, IL-19 at week 4 and PASI at week 12
[8] = Q2W, IL-19 at week 12 and PASI at week 12
[9] = Q4W, IL-19 at week 4 and PASI at week 12
[10] = Q4W, IL-19 at week 12 and PASI at week 12

## ixekizumab
Ps0 patients [1]; 10 mg subcutaneous every 2 weeks, Week 0 (baseline)
  IL-19 serum levels (geometric mean): 111.6 pg/mL
Ps0 patients [1]; 10 mg subcutaneous every 2 weeks, Week 2
  IL-19 serum levels (geometric mean): 45.3 pg/mL
Ps0 patients [1]; 10 mg subcutaneous every 2 weeks, n = 19
  number of patients achieving at least PASI 75: 5
Ps0 patients [1]; [3]
  % of patients with serum IL-19 concentration ≤ 21 pg/mL: 42.1% (8/19)
  % patients with serum IL-19 concentration ≤ 21 pg/mL achieving at least PASI 75: 62.5% (5/8)
  % patients with serum IL-19 concentration ≤ 21 pg/mL not achieving at least PASI 75: 37.5% (3/8)^
  IL-19 serum levels (geometric mean): 57.3 pg/mL
Ps0 patients [1]; 25 mg subcutaneous every 2 weeks, Week 0 (baseline)
  IL-19 serum levels (geometric mean): 89.0 pg/mL
Ps0 patients [1]; 25 mg subcutaneous every 2 weeks, Week 2
  IL-19 serum levels (geometric mean): 22.3 pg/mL
Ps0 patients [1]; 25 mg subcutaneous every 2 weeks, n = 20
  number of patients achieving at least PASI 75: 16
Ps0 patients [1]; [4]
  % of patients with serum IL-19 concentration ≤ 21 pg/mL: 70% (14/20)
  % patients with serum IL-19 concentration ≤ 21 pg/mL achieving at least PASI 75: 92.9% (13/14)
  % patients with serum IL-19 concentration ≤ 21 pg/mL not achieving at least PASI 75: 7.1% (1/14)
  IL-19 serum levels (geometric mean): 13.6 pg/mL
Ps0 patients [1]; 75 mg subcutaneous every 2 weeks, Week 0 (baseline)
  IL-19 serum levels (geometric mean): 86.7 pg/mL
Ps0 patients [1]; 75 mg subcutaneous every 2 weeks, Week 2
  IL-19 serum levels (geometric mean): 11.6 pg/mL
Ps0 patients [1]; 75 mg subcutaneous every 2 weeks, n = 24
  number of patients achieving at least PASI 75: 21
Ps0 patients [1]; [5]
  % of patients with serum IL-19 concentration ≤ 21 pg/mL: 91.7% (22/24)^
  % patients with serum IL-19 concentration ≤ 21 pg/mL achieving at least PASI 75: 86.4% (19/22)
  % patients with serum IL-19 concentration ≤ 21 pg/mL not achieving at least PASI 75: 13.6% (3/22)
  IL-19 serum levels (geometric mean): 9.4 pg/mL
Ps0 patients [1]; 150 mg subcutaneous every 2 weeks, Week 0 (baseline)
  IL-19 serum levels (geometric mean): 87.1 pg/mL
Ps0 patients [1]; 150 mg subcutaneous every 2 weeks, Week 2
  IL-19 serum levels (geometric mean): 13.9 pg/mL
Ps0 patients [1]; 150 mg subcutaneous every 2 weeks, n = 24
  number of patients achieving at least PASI 75: 22
Ps0 patients [1]; [6]
  % of patients with serum IL-19 concentration ≤ 21 pg/mL: 92% (23/25)
  % patients with serum IL-19 concentration ≤ 21 pg/mL achieving at least PASI 75: 95% (19/20)
  % patients with serum IL-19 concentration ≤ 21 pg/mL not achieving at least PASI 75: 5% (1/20)
  IL-19 serum levels (geometric mean): 11.9 pg/mL
PsA patients; Q2W: 160 mg at baseline, then 80 mg every two weeks, Week 0 (baseline)
  IL-19 (geometric mean) serum levels: 23.0 pg/mL
PsA patients; Q2W: 160 mg at baseline, then 80 mg every two weeks, Week 4
  IL-19 (geometric mean) serum levels: 6.0 pg/mL
PsA patients; Q2W: 160 mg at baseline, then 80 mg every two weeks, Week 12
  IL-19 (geometric mean) serum levels: 6.1 pg/mL
PsA patients; Q2W, IL-19 at week 4
  % of patients with serum IL-19 concentration ≤ 21 pg/mL: 97.5% (79/81)
PsA patients; [7]
  % patients with serum IL-19 concentration ≤ 21 pg/mL achieving at least PASI 75: 72.2% (57/79)
  % patients with serum IL-19 concentration ≤ 21 pg/mL not achieving at least PASI 75: 27.8% (22/79)
PsA patients; Q2W, IL-19 at week 12
  % of patients with serum IL-19 concentration ≤ 21 pg/mL: 96.7% (87/90)
PsA patients; [8]
  % patients with serum IL-19 concentration ≤ 21 pg/mL achieving at least PASI 75: 73.1% (57/78)
  % patients with serum IL-19 concentration ≤ 21 pg/mL not achieving at least PASI 75: 26.9% (21/78)
PsA patients; Q4W: 160 mg at baseline, then 80 mg every four weeks, Week 0 (baseline)
  IL-19 (geometric mean) serum levels: 31.3 pg/mL
PsA patients; Q4W: 160 mg at baseline, then 80 mg every four weeks, Week 4
  IL-19 (geometric mean) serum levels: 7.6 pg/mL
PsA patients; Q4W: 160 mg at baseline, then 80 mg every four weeks, Week 12
  IL-19 (geometric mean) serum levels: 7.3 pg/mL
PsA patients; Q4W, IL-19 at week 4
  % of patients with serum IL-19 concentration ≤ 21 pg/mL: 90.8% (79/87)
PsA patients; [9]
  % patients with serum IL-19 concentration ≤ 21 pg/mL achieving at least PASI 75: 73.4% (58/79)
  % patients with serum IL-19 concentration ≤ 21 pg/mL not achieving at least PASI 75: 26.6% (21/79)
PsA patients; Q4W, IL-19 at week 12
  % of patients with serum IL-19 concentration ≤ 21 pg/mL: 93.5% (87/93)
PsA patients; [10]
  % patients with serum IL-19 concentration ≤ 21 pg/mL achieving at least PASI 75: 74.1% (60/81)
  % patients with serum IL-19 concentration ≤ 21 pg/mL not achieving at least PASI 75: 25.9% (21/81)
PsA patients; both ixekizumab treatment groups, sustained over the 12 week treatment
  change of serum IL-19 in words: lowering of IL-19 to near normal levels after 4 weeks
Ps0 patients [2]
  patients achieved a 75% reduction in PASI score (PASI 75): 90%

From patent US12459997B2, “Compounds and methods targeting interleukin-19” (Eli Lilly and Company, priority 2018, dated 2025)
